According to patent US7232813B2, “Neutral endopeptidase (NEP) and human soluble endopeptidase (hSEP) inhibitors for prophylaxis and treatment of neuro-degenerative disorders” (Solvay Pharmaceuticals B.V., priority 2004, dated 2007):

Tests used:
[1] = system: traumatic brain injury; CA3 hippocampus neurons; assay: Traumatic brain injury model (delayed neuronal death), i.c.v. administration; type: in vivo, Wistar rats; settings: for Effect of treatment on neuronal loss in the CA3 hippocampus (ANOVA): 10 μg i.c.v.; for Neuroprotective effect with delayed administration: administered i.c.v. up to 8 hrs after trauma; for Effect on hippocampal neuronal loss: injection of 10 μg into the right cerebral ventricle; for Neuroprotective effect in the traumatic brain injury model: result in words; for Neuronal densities CA3 hippocampus: traumatized right side, 10 μg i.c.v. 15 min after trauma, 3 days after injury, mean ± SD
Procedure: (§1) Contusing device. The contusing device consisted of a stainless steel tube, 40 cm in length, perforated at 1 cm intervals to prevent air compression in the tube. Wistar rats, 230–270 g, were anesthetized with chloral hydrate, 400 mg/kg i.p., a craniotomy over the right hemisphere was made, the device guiding a falling weight onto the footplate resting upon the surface of the dura was placed perpendicular to the surface of the skull, and a force of 380 g×cm produced by a 20 g weight was selected to produce brain contusion. A maximum of 2.5 mm depression of the brain surface was allowed to avoid mechanical puncture of the dura. The center of the footplate was stereotaxically positioned 1.5 mm posterior and 2.5 mm lateral to the bregma. The rats underwent perfusion fixation 3 days after brain injury with a solution containing 4% paraformaldehyde in phosphate buffer.
Intracerebroventricular (i.c.v.) injections: Compounds were administered i.c.v. by means of a Hamilton syringe in a volume of 5–15 μl. Injections were performed over 5 min, 15 min−8 hrs after trauma using the following stereotaxic coordinates: AP=−0.5 mm, L=−2 mm and V=−5.5 in relation to bregma (Swanson, L. W. (1992) Brain Maps: Structure of the Rat Brain, Elsevier, Amsterdam).
(§2) Morphometric analysis in hippocampus. The damage in the hippocampal CA3 subfield was determined stereologically at 5 different rostrocaudal levels extending from 10.21 to 11.21 mm (Swanson, L. W. (1992) Brain Maps: Structure of the Rat Brain, Elsevier, Amsterdam) and throughout its mediolateral axis three days after traumatic injury. To quantitatively assess neuronal loss in the hippocampus, stereological disector technique (Cruz-Orive, L. M. & Weibel, E. R. (1990) Am. J. Physiol. 258, L148–L156) was used to estimate numerical density (NV) of pyramidal neurons. An unbiased counting frame (0.05 mm×0.05 mm; disector height 0.01 mm) and a high-aperture objective (×40) were used for sampling. Normal neurons were identified by the presence of the typical nuclei with clear nucleoplasm and distinct nucleolus surrounded by cytoplasm containing Nissl substance. The border between CA2 and CA3 subfields was considered as the point where the looser arrangement of large pyramidal cells goes into densely packed pyramidal cells of the subfield CA3. An arbitrary line connecting the lateral ends of the dentate granule cell layers was considered a junction between subfields CA3 and CA4.
Dose responses of the neuroprotective effect of the compounds with the formulae 6 and 7 when administered i.c.v. 15 min after trauma to adult Wistar rats were measured. Neuronal densities were determined in the CA3 hippocampal subfield as described in the methods. Densities of CA3 neurons±Standard Deviation (=SED) in 6 stereotactic levels in the left non-traumatized side of vehicle treated rats and the traumatized right side of vehicle treated rats and in rats treated with the compounds with the formulae 6 and 7 were measured and the results listed in table 1 below. In all of the following tables the numbers (“n”) indicate the number of rats per group, where applicable.

[2] = system: traumatic brain injury; CA3 hippocampus neurons; assay: Traumatic brain injury model (delayed neuronal death), i.v. administration; type: in vivo, Wistar rats; settings: for Neuronal densities CA3 hippocampus, i.v. administration: mean ± SD
Procedure: as §1
Intravenous injections: Compounds were administered i.v. using a 1 ml syringe attached to a 26 gauge needle. The needle was inserted into the left femoral vein following a small skin incision. Compounds were administered in a volume of 1 ml/kg body weight over 30 sec.
as §2
(P<0.001; n=8 per group).

SMILES | Effect of treatment on neuronal loss in the CA3 hippocampus (ANOVA) [1] | Neuroprotective effect with delayed administration [1] | Effect on hippocampal neuronal loss [1] | Neuroprotective effect in the traumatic brain injury model [1] | Neuronal densities CA3 hippocampus ([1]; stereotactic level 10.21) [cells × 10^3/mm^3] | Neuronal densities CA3 hippocampus ([1]; stereotactic level 10.41) [cells × 10^3/mm^3] | Neuronal densities CA3 hippocampus ([1]; stereotactic level 10.61) [cells × 10^3/mm^3] | Neuronal densities CA3 hippocampus ([1]; stereotactic level 10.81) [cells × 10^3/mm^3] | Neuronal densities CA3 hippocampus ([1]; stereotactic level 11.01) [cells × 10^3/mm^3] | Neuronal densities CA3 hippocampus ([1]; stereotactic level 11.21) [cells × 10^3/mm^3] | also measured
O=C(O)CN1C(=O)[C@@H](NC(=O)C2(C[C@@H](CCc3ccccc3)C(=O)O)CCCC2)CCc2ccccc21 [Formula 6, (2R)-2-{[1-({[(3S)-1-(carboxymethyl)-2-oxo-2,3,4,5-tetrahydro-1H-1-benzaepin-3-yl]amino}carbonyl)cyclopentyl]methyl}-4-phenylbutanoic acid] | significant protective effect | still evident | partially prevented hippocampal neuronal loss | dose-dependent neuroprotective effects | 112.5 ± 11.40 | 103.75 ± 11.80 | 101.75 ± 14.80 | 98.50 ± 10.68 | 96.75 ± 13.98 | 101.75 ± 15.17 | –
O=C(O)CN1C(=O)[C@@H](NC(=O)C2(C[C@@H](CCc3cccc4ccccc34)C(=O)O)CCCC2)CCc2ccccc21 [Formula 7, (2R)-2-{[1-({[(3S)-1-(carboxymethyl)-2-oxo-2,3,4,5-tetrahydro-1H-1-benzazepin-3-yl]amino)carbonyl)cyclopentyl]methyl}-4-(1-naphthyl)butanoic acid] | significant protective effect | still evident | partially prevented hippocampal neuronal loss | dose-dependent neuroprotective effects | 107.25 ± 15.19 | 100.25 ± 14.71 | 93.50 ± 16.96 | 93.50 ± 12.36 | 101.50 ± 18.81 | 107.75 ± 16.51 | Effect of treatment on neuronal loss in the CA3 hippocampus (ANOVA) ([2]; both tested doses (30 and 300 mg/kg i.v.), P<0.001, n=8 per group): significant protective effect; Neuroprotection of 300 mg/kg compared with 30 mg/kg (ANOVA) ([2]; i.v., 300 mg/kg vs 30 mg/kg): significantly better neuroprotection; Effect on hippocampal neuronal loss ([2]; injection of 30 or 300 mg/kg i.v.): partially prevented hippocampal neuronal loss; Neuronal densities CA3 hippocampus, i.v. administration ([2]; stereotactic level 10.21, 30 mg/kg i.v.): 107.50 ± 6.99 cells × 10^3/mm^3; Neuronal densities CA3 hippocampus, i.v. administration ([2]; stereotactic level 10.21, 300 mg/kg i.v.): 126.50 ± 5.53 cells × 10^3/mm^3; Neuronal densities CA3 hippocampus, i.v. administration ([2]; stereotactic level 10.41, 30 mg/kg i.v.): 102.25 ± 7.89 cells × 10^3/mm^3; Neuronal densities CA3 hippocampus, i.v. administration ([2]; stereotactic level 10.41, 300 mg/kg i.v.): 117.75 ± 4.95 cells × 10^3/mm^3; Neuronal densities CA3 hippocampus, i.v. administration ([2]; stereotactic level 10.61, 30 mg/kg i.v.): 100.75 ± 9.91 cells × 10^3/mm^3; Neuronal densities CA3 hippocampus, i.v. administration ([2]; stereotactic level 10.61, 300 mg/kg i.v.): 110.00 ± 7.01 cells × 10^3/mm^3; Neuronal densities CA3 hippocampus, i.v. administration ([2]; stereotactic level 10.81, 30 mg/kg i.v.): 101.75 ± 9.65 cells × 10^3/mm^3; Neuronal densities CA3 hippocampus, i.v. administration ([2]; stereotactic level 10.81, 300 mg/kg i.v.): 106.75 ± 7.48 cells × 10^3/mm^3; Neuronal densities CA3 hippocampus, i.v. administration ([2]; stereotactic level 11.01, 30 mg/kg i.v.): 111.25 ± 7.55 cells × 10^3/mm^3; Neuronal densities CA3 hippocampus, i.v. administration ([2]; stereotactic level 11.01, 300 mg/kg i.v.): 116.50 ± 9.06 cells × 10^3/mm^3; Neuronal densities CA3 hippocampus, i.v. administration ([2]; stereotactic level 11.21, 30 mg/kg i.v.): 117.75 ± 10.11 cells × 10^3/mm^3; Neuronal densities CA3 hippocampus, i.v. administration ([2]; stereotactic level 11.21, 300 mg/kg i.v.): 125.25 ± 5.01 cells × 10^3/mm^3
